Experimental data as given in the CheMixHub ionic liquid set.

Assay: xn = mol fraction of the nth substance listed

CS(=O)(=O)[O-].C[N+](C)(CCO)CCO + CCCO
viscosity [mPa·s], 101 kPa
Conditions	x1 = 0.0999	x1 = 0.1996	x1 = 0.2999	x1 = 0.3987	x1 = 0.498	x1 = 0.5975	x1 = 0.6972	x1 = 0.7982	x1 = 0.8978	x1 = 1
298.15 K	4.97	11.64	25.5	50.9	97.5	196	337	576	960	1495
303.15 K	4.34	9.88	20.9	40.6	75.5	149	248	414	676	1021
308.15 K	3.8	8.45	17.4	32.9	59.6	114.8	187	304	484	716
313.15 K	3.36	7.29	14.66	27	47.7	79.8	142.8	228	355	513
318.15 K	2.98	6.35	12.49	22.5	38.8	63.7	111.4	174	267	378
323.15 K	2.66	5.56	10.92	18.9	32	51.5	79.8	135.8	203	282

CC(=O)[O-].CCC[NH3+] + O
298.15 K, 101 kPa
Conditions	electrical conductivity [S/m]
x1 = 0.0032	0.713
x1 = 0.005	0.905
x1 = 0.0101	1.43
x1 = 0.0169	1.47
x2 = 0	0.043
x2 = 0.1576	0.082
x2 = 0.3525	0.165
x2 = 0.5506	0.401
x2 = 0.6999	0.685
x2 = 0.7885	0.937
x2 = 0.8198	1.06
x2 = 0.8501	1.18
x2 = 0.8849	1.34
x2 = 0.9041	1.44
x2 = 0.9082	1.47
x2 = 0.9305	1.59
x2 = 0.9455	1.65
x2 = 0.965	1.65
x2 = 0.9742	1.61

O=C(O)CC(O)(CC(=O)O)C(=O)O + CCCC[N+](CCCC)(CCCC)CCCC.[Cl-] + O
100 kPa, x2 = 0.1428, x1 = 0.1428
Conditions	electrical conductivity [S/m]	viscosity [mPa·s]
293.15 K	0.0384	620
303.15 K	0.0639	380
313.15 K	0.103	245
323.15 K	0.161	161
333.15 K	0.245	108

O=S(=O)([N-]S(=O)(=O)C(F)(F)F)C(F)(F)F.[Li+] + COCCOCCOCCOCCOC
Conditions	electrical conductivity [S/m]
293 K, 100 kPa, frequency 0.05 MHz, x1 = 0.143	0.235

O=S(=O)([N-]S(=O)(=O)C(F)(F)F)C(F)(F)F.[Li+] + C1COCO1
298.15 K, 100 kPa
Conditions	electrical conductivity [S/m]	viscosity [mPa·s]
x1 = 8e-07	1.3e-05	–
x1 = 3.74e-06	3.1e-05	–
x1 = 8.82e-06	5e-05	0.58
x1 = 1.615e-05	6.8e-05	0.582
x1 = 2.378e-05	8.1e-05	0.583
x1 = 3.941e-05	0.000103	0.584
x1 = 8.444e-05	0.000138	0.585
x1 = 0.0001607	0.0002	0.588
x1 = 0.0004162	0.000398	0.589
x1 = 0.0007624	0.000536	0.591
x1 = 0.001538	0.000978	0.595
x1 = 0.002969	0.00173	0.608
x1 = 0.004513	0.00309	0.629
x1 = 0.005877	0.00459	0.633
x1 = 0.007354	0.00664	0.637
x1 = 0.01099	0.0164	0.661
x1 = 0.0146	0.0294	0.683
x1 = 0.02174	0.0659	0.758
x1 = 0.03572	0.169	0.905
x1 = 0.06897	0.446	1.388
x1 = 0.08475	0.563	1.684
x1 = 0.1	0.643	2.11
x1 = 0.1285	0.738	3.122
x1 = 0.1563	0.744	4.4
x1 = 0.1818	0.69	6.52
x1 = 0.2054	0.606	9.99
x1 = 0.2273	0.512	13.96
x1 = 0.2467	0.431	20.04
x1 = 0.2703	0.337	30.3

CC[NH2+]CC.O=S(=O)([O-])O + O
Conditions	viscosity [mPa·s]
298.15 K, 101 kPa, x2 = 0.6088	32.1

O=S(=O)([N-]S(=O)(=O)C(F)(F)F)C(F)(F)F.[Li+] + CCCC[N+]1(C)CCCC1.O=S(=O)([N-]S(=O)(=O)C(F)(F)F)C(F)(F)F + O
viscosity [mPa·s], 100 kPa
Conditions	293.15 K	298.15 K	303.15 K	313.15 K	323.15 K	333.15 K	343.15 K	353.15 K	363.15 K
x1 = 0.2745, x2 = 0.2745	117	85.1	66.1	43	29.5	20.8	15.8	11.9	9.38
x1 = 0.3106, x2 = 0.2745	144	110	85.8	52.2	34.6	24.4	17.9	13.6	10.6
x1 = 0.3509, x2 = 0.2745	242	179	135	82.5	49.1	33.5	23.9	17.7	13.6
x1 = 0.3868, x2 = 0.2745	437	334	246	141	87.5	52.3	35.9	25.8	19.3
x1 = 0.4308, x2 = 0.2745	599	421	304	171	104	62.1	42	29.9	21.5

O=S(=O)([N-]S(=O)(=O)C(F)(F)F)C(F)(F)F.[Cs+] + O=S(=O)([N-]S(=O)(=O)C(F)(F)F)C(F)(F)F.[Li+]
100 kPa, frequency 1 MHz, x2 = 0.07
Conditions	electrical conductivity [S/m]
403.1 K	0.673
413.1 K	0.898
423.5 K	1.16
432.7 K	1.44
442.1 K	1.77
452.2 K	2.12
462.6 K	2.52
473.6 K	2.94
482.8 K	3.37
492 K	3.86
502.1 K	4.33
512.5 K	4.85
523.1 K	5.37
531.3 K	5.9
542.9 K	6.41
551.8 K	7
560.9 K	7.52
571.1 K	8.14

100 kPa, x2 = 0.07
Conditions	viscosity [mPa·s]
403.2 K	97
413.2 K	69.8
423.7 K	51.5
432.9 K	39.2
442.5 K	27.9
452.5 K	23
463 K	18.9
473.9 K	15.8
483.1 K	13.1
492.6 K	11.1
502.5 K	9.71
512.8 K	8.54
523.6 K	7.41
531.9 K	6.64
543.5 K	6.03
552.5 K	5.39
561.8 K	5.01

[N-]=C=S.[NH4+] + CCOS(=O)(=O)[O-].CC[n+]1ccn(C)c1
101 kPa
Conditions	electrical conductivity [S/m]	viscosity [mPa·s]
298.15 K, x1 = 0.0235	0.373	103.1
298.15 K, x1 = 0.3025	0.285	–
303.15 K, x1 = 0.565	0.375	172.5
308.15 K, x1 = 0.3025	0.439	129.6
308.15 K, x1 = 0.4042	0.436	140.9
313.15 K, x1 = 0.5997	0.59	–
318.15 K, x1 = 0.5205	0.656	86.9
318.15 K, x1 = 0.565	0.728	85.3
323.15 K, x1 = 0.565	0.868	69.75
333.15 K, x1 = 0.0235	–	26.54
333.15 K, x1 = 0.3025	–	50.29
333.15 K, x1 = 0.4042	–	53.18
333.15 K, x1 = 0.5997	–	47.67
